Measurements published in US8389680B2, “Treatment of Aspergillus infections with alpha thymosin peptides” (SciClone Pharmaceuticals, Inc., priority 2003, dated 2013).

Assays:
murine DCs = experiment: IL-12 p70 and IL-10 production by murine DCs in response to microbial TLR ligands; format: cell-based
Description: (§1) Zymosan was from Saccharomyces cerevisiae, lipoteichoic acid (LTA) from Staphylococcus aureus, and lipopolysaccharide (LPS) from Salmonella Minnesota Re 595. The CpG oligonucleotides 1826 and 2006 were proven immunostimulatory sequences. For phagocytosis, DCs were pre-exposed to 100 ng/ml TA1 for 60 minutes and subsequently incubated at 37° C. with Aspergillus conidia for an additional 60 minutes. The percentage of internalization was calculated and photographs were taken. In assessing functional maturation and cytokine determination, purified DCs were resuspended in Iscove's medium (with no serum but with polymixin B, to avoid non-specific activation by serum components and endotoxin) and pulsed with 100 ng/ml TA1 for 24 hours either alone or together with TLR ligands or unopsonized Aspergillus conidia. The levels of TNF-alpha, IL-10, IL-12 p70, IFN-alpha and IL-8 in culture supernatants were determined by Kit ELISAs. The detection limits (pg/ml) of the assays were <3 (human) and <32 (murine) for TNF-alpha, <12 (murine) and <5 (human) for IL-10, <16 (murine) and <3 (human) for IL-12 p70 and <25 (human) IL-8. For human IFN-alpha <3 ng/ml. For enumeration of cytokine-producing cells, an ELISPOT assay was used on purified CD4^+ T cells and DCs from lungs.

MyD88-dependent pathway = experiment: Cytokine production by DCs of MyD88-deficient mice; format: cell-based
Description: as §1, with “Female, 8- to 10-weeks old, BALB/c and C57BL6 mice were” for “Zymosan was”, “Charles River. NOD/SCID were” for “Saccharomyces cerevisiae, lipoteichoic acid (LTA)”, “The Jackson. Breeding pairs of homozygous TLR2-, TLR9-” for “Staphylococcus aureus,”, “MyD88-deficient mice, raised on C57BL6 background,” for “lipopolysaccharide (LPS) from Salmonella Minnesota Re 595. The CpG oligonucleotides 1826”, “of homozygous IFN-gamma- and IL-4-deficient mice, raised on BALB/c background,” for “2006”, “bred under specific-pathogen free conditions.” for “proven immunostimulatory sequences.”

A. fumigatus = experiment: Therapeutic efficacy of TA1 in T cell-, IFN-gamma- or IL-4-deficient mice with aspergillosis; format: in vivo
Description: Female, 8- to 10-weeks old, BALB/c and C57BL6 mice were from Charles River. NOD/SCID were from The Jackson. Breeding pairs of homozygous TLR2-, TLR9- and MyD88-deficient mice, raised on C57BL6 background, and of homozygous IFN-gamma- and IL-4-deficient mice, raised on BALB/c background, were bred under specific-pathogen free conditions.
For infection with A. fumigatus, mice were intranasally injected for 3 consecutive days with a suspension of 2×10^7 conidia/20 microliter saline. For the quantification of fungal growth in the lungs, the chitin assay was used. The chitin content was expressed as micrograms of glucosamine per organ. The glucosamine content of lungs from uninfected mice was used as a negative control ranging between 0.80 and 2.25 microgram glucosamine/organ. For histological analysis, lungs were excised and immediately fixed in formalin. Sections (3 to 4 micron) of paraffin-embedded tissues were stained with the periodic acid-Schiff procedure. Thymosin alpha 1 (TA1) and the scrambled polypeptide are as purified sterile lyophilized acetylated polypeptides with endotoxin levels less than 0.03 pg/ml, by a standard limulus lysate assay. The sequences were as follows: Ac-[…]O (Thymosin alpha 1, SEQ ID NO.: 1) and Ac-[…]OH ([…]). Their lyophilized powders were reconstituted in sterile water.
The treatments were as follows; in BMT-mice, TA1, at different doses administered intraperitoneally, sthymosin alpha 1, 400 microgram/kg administered intraperitoneally or human recombinant G-CSF 250 microgram/kg administered intravenously, were given daily beginning the day of the BM infusion, in concomitance with the infection and continuing for an additional 3 days. Amphotericin B was given daily for 3 days in concomitance with the infection, at a dose of 4000 microgram/kg, administered intraperitoneally. This dose would cure IA in cyclophosphamide-treated mice. Cyclophosphamide, 150 mg/kg administered intraperitoneally, was given a day before the infection. […]

[1] = after stimulation with CpG (TLR9)
[2] = after stimulation with LTA (TLR2)
[3] = after stimulation with zymosan (TLR2)

In the case of “Ac-Ser-Asp-Ala-Ala-Val-Asp-Thr-Ser-Ser-Glu-Ile-Thr-Thr-Lys-Asp-Leu-Lys-Glu-Lys-Lys-Glu-Val-Glu-Glu-Ala-Glu-Asn-O (Ac-SDAAVDTSSEITTKDLKEKKEVEEAEN-OH) [TA1, naturally occurring thymic peptide]”, the “production of IL-10” value (murine DCs; [1]) is reported as “decreases”, the “production of IL-12 p70” value (murine DCs; [1]) is reported as “significantly increased” and the “production of IL-10” value (murine DCs; [2]) is reported as “decreases”. For the same substance, the “production of IL-12 p70” value (murine DCs; [2]) was “significantly increased”, the “production of IL-10” value (murine DCs; [3]) was “decreases” and the “production of IL-12 p70” value (murine DCs; [3]) was “significantly increased”. For the same substance, the “cytokine production (IL-12 p70 and IL-10)” value (murine DCs; in response to LPS (TLR4)) was “did not affect”, the “cytokine production (IL-12 p70 and IL-10)” value (murine DCs; in response to Poly(I:C)) was “did not affect” and the IL-10 production (MyD88-dependent pathway) was “dramatically ablated”. For the same substance, the “IL-12 p70 production” value (MyD88-dependent pathway; TA1 and conidia) was “dramatically ablated”, the therapeutic efficacy (A. fumigatus; IL-4-deficient mice (increased Th1 cells)) was “improved therapeutic efficacy” and the therapeutic efficacy (A. fumigatus; mice devoid of IFN-gamma-producing Th1 cells) was “not as great”. For the same substance, the therapeutic efficacy (A. fumigatus; mice devoid of T cells) was “not as great”.
